Measured values published in the supplement of paper PMC10307832.

Tests used:
Test in all cases: relative viability (nuclei count vs DMSO), 5 days (fraction); higher = more cells survive
Erlotinib + Pictilisib = compound: C#Cc1cccc(Nc2ncnc3cc(OCCOC)c(OCCOC)cc23)c1 [Erlotinib] + CS(=O)(=O)N1CCN(Cc2cc3nc(-c4cccc5[nH]ncc45)nc(N4CCOCC4)c3s2)CC1 [Pictilisib] (partner 1 µM)
Summary of the method: (§1)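 Values are medians from duplicate plates. Each reflects relative viability, defined as the nuclei count of treated wells over that of vehicle wells. Lung cancer cell lines in 1536-well plates were pin-tool dosed one day after seeding with one drug alone or with a fixed anchor-drug dose plus five library-drug doses (not always all listed) in √10 steps, then fixed, stained and imaged at 4× after 5 days.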

Erlotinib + Trametinib = compound: C#Cc1cccc(Nc2ncnc3cc(OCCOC)c(OCCOC)cc23)c1 [Erlotinib] + CC(=O)Nc1cccc(-n2c(=O)n(C3CC3)c(=O)c3c(Nc4ccc(I)cc4F)n(C)c(=O)c(C)c32)c1 [Trametinib] (partner 0.02 µM)
Summary of the method: as §1

AT9283 + Luminespib = compound: O=C(Nc1c[nH]nc1-c1nc2ccc(CN3CCOCC3)cc2[nH]1)NC1CC1 [AT9283] + CCNC(=O)c1noc(-c2cc(C(C)C)c(O)cc2O)c1-c1ccc(CN2CCOCC2)cc1 [Luminespib] (partner 0.01 µM)
Summary of the method: as §1

AT9283 + Bortezomib = compound: O=C(Nc1c[nH]nc1-c1nc2ccc(CN3CCOCC3)cc2[nH]1)NC1CC1 [AT9283] + CC(C)C[C@H](NC(=O)[C@H](Cc1ccccc1)NC(=O)c1cnccn1)B(O)O [Bortezomib] (partner 0.002 µM)
Summary of the method: as §1

Erlotinib + Crizotinib = compound: C#Cc1cccc(Nc2ncnc3cc(OCCOC)c(OCCOC)cc23)c1 [Erlotinib] + C[C@@H](Oc1cc(-c2cnn(C3CCNCC3)c2)cnc1N)c1c(Cl)ccc(F)c1Cl [Crizotinib] (partner 1 µM)
Summary of the method: as §1

**Q.** How did the relative viability (Erlotinib + Pictilisib; first compound 0.02 µM) turn out when NCI-H441 was run?
**A.** Its relative viability is 0.448.

**Q.** And the relative viability (Erlotinib + Pictilisib; first compound 0.2 µM)?
**A.** Its relative viability is 0.495.

**Q.** And the relative viability (Erlotinib + Pictilisib; first compound 0.6325 µM)?
**A.** Its relative viability is 0.393.

**Q.** What about the relative viability (Erlotinib + Pictilisib; first compound 2 µM) of the same cell line?
**A.** The relative viability was 0.392.

**Q.** And the relative viability (Erlotinib + Trametinib; first compound 0.02 µM)?
**A.** The relative viability was 0.457.

**Q.** What about the relative viability (Erlotinib + Trametinib; first compound 0.6325 µM) of the same cell line?
**A.** The relative viability was 0.442.

**Q.** And the relative viability (Erlotinib + Trametinib; first compound 2 µM)?
**A.** The relative viability was 0.328.

**Q.** And the relative viability (AT9283 + Luminespib; first compound 0.003 µM)?
**A.** The relative viability was 0.432.

**Q.** What about the relative viability (AT9283 + Luminespib; first compound 0.03 µM) of the same cell line?
**A.** The relative viability was 0.347.

**Q.** What about the relative viability (AT9283 + Luminespib; first compound 0.09487 µM) of the same cell line?
**A.** The relative viability was 0.344.

**Q.** What about the relative viability (AT9283 + Luminespib; first compound 0.3 µM) of the same cell line?
**A.** Its relative viability is 0.263.

**Q.** And the relative viability (AT9283 + Bortezomib; first compound 0.003 µM)?
**A.** The relative viability was 0.406.

**Q.** What about the relative viability (AT9283 + Bortezomib; first compound 0.03 µM) of the same cell line?
**A.** The relative viability was 0.442.

**Q.** What about the relative viability (AT9283 + Bortezomib; first compound 0.09487 µM) of the same cell line?
**A.** The relative viability was 0.536.

**Q.** And the relative viability (AT9283 + Bortezomib; first compound 0.3 µM)?
**A.** The relative viability was 0.381.

**Q.** And the relative viability (Erlotinib + Crizotinib; first compound 0.02 µM)?
**A.** The relative viability was 0.831.

**Q.** And the relative viability (Erlotinib + Crizotinib; first compound 0.2 µM)?
**A.** The relative viability was 0.751.

**Q.** What about the relative viability (Erlotinib + Crizotinib; first compound 0.6325 µM) of the same cell line?
**A.** The relative viability was 0.772.

**Q.** And the relative viability (Erlotinib + Crizotinib; first compound 2 µM)?
**A.** Its relative viability is 0.677.
